The record followed here is article PMC9108603, “Microbial Metabolite Inspired β‐Peptide Polymers Displaying Potent and Selective Antifungal Activity” (Advanced Science, 2022).

For one assay, the system named is macrophage (RAW264.7). The experiment in a line: Cytotoxicity, MTT assay. Type of assay: cell-based. The settings on record: Mus musculus, 24 h, 37 °C, 800 to 1.6 μg/mL, 50% cell viability. As to the method: (§1) Cytotoxicity assay. Cytotoxicity tests were performed on NIH 3T3 fibroblast cells, endothelial cells (HUVEC), macrophage (RAW264.7), liver cells (LO2), kidney cells (COS7) and enterocyte (NCM-460) using MTT assay. Cells were cultured in DMEM supplemented with 10% FBS, 5% penicillin, 2 mM L-glutamine and incubated at 37 °C in 5% CO 2. Cells were harvested and seeded onto 96-well plates at a density of 1.0 × 10^4 cells per well and incubated for 24 h. On each plate, wells containing growth medium only and cells in growth medium without any antifungal agent were used as the negative and positive control, […]
(§2) concentrations ranging from 800 to 1.6 μg/mL. Medium in each cell-containing well was replaced with 100 μL of the corresponding polymer solution, and the plates were incubated at 37 °C for 24 h. Then, the solution in each well was switched to 100 µL MTT solution (1 mg/mL) and the plate was incubated in the dark at 37 °C for 4 h. After centrifuge (to prevent the possible loss of formazan crystals) and removal of the supernatant, 100 μL DMSO was added to each well to dissolve the formed formazan under stirred for 20 min. Then 85 µL of the supernatant from each well was transferred to the corresponding well in a new plate, followed by absorbance measurement at 570 nm on a plate reader. Each antifungal agent was tested in triplicate in each assay, and the experiment was conducted at least twice on a different day. The percentage of cell viability in each test well, relative to the positive control (which defines 100%) w as calculated from [% fibroblast growth = (A polymer – Ablank)/(Acontrol – A blank) × 100]. The IC 50 value is the minimum concentration to inhibit 50% of fibroblast cell growth. All measurements were performed with three replicates.

A further assay has as its system kidney cells (COS7). Kind of assay: Cytotoxicity, MTT assay. The settings on record: Chlorocebus aethiops, COS-7, 24 h, 37 °C, 800 to 1.6 μg/mL, 50% cell viability. Type of assay: cell-based. The procedure: as §1, §2
A further assay concerns enterocyte (NCM-460). Kind of assay: Cytotoxicity, MTT assay. Type of assay: cell-based. The settings on record: Homo sapiens, NCM460, 24 h, 37 °C, 800 to 1.6 μg/mL, 50% cell viability. As to the method: as §1, §2
Another assay concerns C. neoformans. Kind of assay: MIC assay (in vitro antifungal assay). Type of assay: cell-based. The settings on record: Cryptococcus neoformans, 48 h. The procedure:
In vitro antifungal assays. The MIC assays for C. albicans (K1, SC5314, Gu5, ATCC90028, R01, R02, R03 and R04 strains) and C. neoformans (H99, MYA737 and JEC21 strains) were conducted according to a previously described protocol. The cultured fungal cells were collected at 2.5 × 10^3 CFU/mL in RPMI 1640 medium to give the working suspension. Two- […]
plate to give 50 µL compound solution in each well. Then 50 µL of the cell suspension was added to each well. Wells containing cells in RPMI without any polymer or antifungal drug were used as drug-free controls, and wells containing RPMI medium only were used as cell-free controls. The plate was gently stirred for 10 seconds and then incubated at 30 °C. After C. albicans and C. neoformans cells were incubated for 24 h and 48 h, respectively, fungal cell growth was checked visually. […]

The subject of a further assay is C. albicans (K1 strain). Kind of assay: Killing efficiency under energy depletion. The settings on record: 2 × MFC (50 μg/mL), colony count, n = 3. Type of assay: cell-based, Candida albicans. As to the method:
Energy depletion analysis. For energy depletion experiments, cell suspension of C. albicans (K1 strain) at 3.0 × 10^6 CFU/mL was pretreated with RPMI containing 5 mM NaN 3 for 1 h. For antifungal efficiency assay, a fresh cell suspension pretreated or non-pretreated with NaN 3 were incubated with 50 μg/mL PDAP 20 or without an antifungal agent (as energy depletion control) for 24 h. The fresh cell suspension without antifungal agents before and after incubation with NaN 3 for 24 h were used as the controls, respectively. The suspensions were diluted and plated on YPD agar. The plates were incubated at 30 °C for 24 h and colony amounts were counted. The cell viability after incubation at 4 °C with 50 μg/mL PDAP 20 or without an antifungal agent (as positive control) was measured using the same method.
For the confocal assay, a fresh cell suspension pretreated or non-pretreated with NaN 3 was incubated with 50 μg/mL CPM-PDAP 20 for 24 h, respectively. […]
For flow cytometry experiment, a fresh cell suspension pretreated or non-pretreated with NaN 3 was incubated with 50 μg/mL CPM-PDAP 20 for 1 h and 2 h, respectively. Fungal cells were washed by PBS to remove polymers, and 5.0 × 10^4 cells were counted and anaysized. The polymer uptake was calculated by flow cytometry (Backman). Furthermore, cell suspensions were incubated with 10 μg/mL PI for 10 min for calculated PI uptake. […]

The test system of a further assay is C. albicans K1 strain. Kind of assay: Kill kinetics assay. Type of assay: cell-based, Candida albicans. The settings on record: 2 × MFC, C. albicans K1, RPMI 1640, 30 °C, CFU on YPD agar, duplicates. The procedure:
Kill kinetics assay. A culture of C. albicans K1 strain was collected at 2.5 × 10^3 CFU/mL or 6.0 × 10^6 CFU/mL in RPMI 1640 medium to give the working suspension. […]
solution was added to 0.5 mL of the above fungal suspension in each well of a 24-well plate to achieve 2 × MFC of polymer concentration. The fungal suspensions were incubated at 30 °C. At desired time points, each suspension was homogeneously mixed and 30 µL of each

In the next assay the test system is C. albicans (R02 strain). The experiment in a line: microbe, parasite or virus in culture. The settings on record: C. albicans R02; 0.5 × MIC of PDAP20 or 0.5 × MIC50 of fluconazole; 30 passages; duplicates. Type of assay: cell-based, Candida albicans. As to the method: Drug resistance studies. Drug resistance was induced by treating the C. albicans (R02 strain) repeatedly with antifungal agents. […]
albicans were tested for 30 passages of growth, which is long enough and adopted by many studies. C. albicans exposed to the 1/2 MIC concentration at the particular passage were re-grown to a logarithmic growth phrase and re-used for the subsequent passage’s MIC measurement for the same antifungal agent. Drug-resistant behavior of C. albicans was evaluated by recording the changes in the MIC compared to the original passage. All measurements were performed in duplicates. […]

Converted amounts (≈) assume the structure as drawn. Where two headings read alike, the source gives them in different places.

As to `C[C@@H]1[C@H](O)[C@@H](C)/C=C/C=C/C=C/C=C/C=C/C=C/C=C/[C@H](O[C@@H]2O[C@H](C)[C@@H](O)[C@H](N)[C@@H]2O)C[C@@H]2O[C@](O)(C[C@@H](O)C[C@@H](O)[C@H](O)CC[C@@H](O)C[C@@H](O)CC(=O)O[C@H]1C)C[C@H](O)[C@H]2C(=O)O` [AmpB, amphotericin B], the IC50 in the assay with macrophage (RAW264.7) was determined as 128 µg/mL (≈ 139 µM); with kidney cells (COS7), 25 µg/mL (≈ 27.1 µM); in the assay on enterocyte (NCM-460), 40 µg/mL (≈ 43.3 µM). For the same molecule, the MIC in the assay with C. neoformans (read-out: MIC C. neoformans H99), in the assay with C. neoformans (read-out: MIC C. neoformans JEC21) and in the assay on C. neoformans (read-out: MIC C. neoformans MYA737) was 1.6 µg/mL (≈ 1.73 µM) throughout.

On to poly(DL‐diaminopropionic acid) [PDAP20], for which, in the assay on C. albicans (K1 strain) (5 × 10^−3 M NaN3, 3.0 × 10^6 CFU/mL, 24 h), the “Fungal cells killed under energy depletion, NaN3” value is “about 88%”. For the same molecule, the “Fungal cells killed under energy depletion, 4°C” value with C. albicans (K1 strain) (at 4°C) was “about 88%”. For the same molecule, the “Time to completely kill the fungi (time‐kill kinetics)” value with C. albicans K1 strain is on record as “several hours”. For the same molecule, the “Development of drug resistance on continuous treatment” value in the assay on C. albicans (R02 strain) is listed as “didn't acquire resistance”.
